Measurements as given in ChEMBL document CHEMBL1909046, “DrugMatrix in vitro pharmacology data”.

Molecular target: T1, Estrogen receptor (Homo sapiens, UniProt P03372); further: in other assays of this panel Not Active means under 50% inhibition at 10 µM
T1 sequence (P03372 whole entry): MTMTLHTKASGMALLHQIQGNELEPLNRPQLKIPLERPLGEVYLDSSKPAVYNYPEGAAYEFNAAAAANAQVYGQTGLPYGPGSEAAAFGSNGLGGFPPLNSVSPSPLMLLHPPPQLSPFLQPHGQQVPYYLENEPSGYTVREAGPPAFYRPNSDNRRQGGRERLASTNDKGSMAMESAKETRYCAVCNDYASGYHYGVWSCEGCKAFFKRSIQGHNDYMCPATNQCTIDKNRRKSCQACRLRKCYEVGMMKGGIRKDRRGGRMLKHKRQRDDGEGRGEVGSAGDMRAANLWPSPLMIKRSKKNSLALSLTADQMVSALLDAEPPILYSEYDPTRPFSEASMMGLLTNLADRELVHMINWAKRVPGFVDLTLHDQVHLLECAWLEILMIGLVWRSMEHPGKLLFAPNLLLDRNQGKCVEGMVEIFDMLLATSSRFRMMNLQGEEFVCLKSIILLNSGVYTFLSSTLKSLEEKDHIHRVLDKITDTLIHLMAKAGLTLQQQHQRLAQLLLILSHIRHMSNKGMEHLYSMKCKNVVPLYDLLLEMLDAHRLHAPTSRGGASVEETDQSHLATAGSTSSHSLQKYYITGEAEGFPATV
Conditions: sf9

Compound	IC50	Ki
NC(=O)N1C(=O)/C(=C(\O)c2cccs2)c2cc(Cl)ccc21 [TENIDAP]	Not Active	–
COc1cc2nc(N3CCN(C(=O)C4CCCO4)CC3)nc(N)c2cc1OC (configuration not stated) [TERAZOSIN]	Not Active	–
CS(=O)(=O)c1ccc([C@@H](O)[C@@H](CO)NC(=O)C(Cl)Cl)cc1 [THIAMPHENICOL]	Not Active	–
CCN(CC)CCNC(=O)c1cc(S(C)(=O)=O)ccc1OC [TIAPRIDE]	Not Active	–
Clc1ccccc1CN1CCc2sccc2C1 [TICLOPIDINE]	Not Active	–
NC1CCN(c2nc3c(cc2F)c(=O)c(C(=O)O)cn3-c2ccc(F)cc2F)C1 (configuration not stated) [TOSUFLOXACIN]	Not Active	–
O=C(Nc1ccc(Br)cc1)c1cc(Br)cc(Br)c1O [TRIBROMSALAN]	Not Active	–
CC(c1cc2ccccc2s1)N(O)C(N)=O (configuration not stated) [ZILEUTON]	Not Active	–
MANGANESE CHLORIDE ANHYDROUS	Not Active	Not Active
SODIUM ORTHOVANAD	Not Active	Not Active

Molecular target: Melanocortin receptor 3 (Homo sapiens, UniProt P41968); further: in other assays of this panel Not Active means under 50% inhibition at 10 µM
Type: cell membranes, HEK293, Membrane
Conditions: hek293

Sequence of Melanocortin receptor 3 (P41968 whole entry): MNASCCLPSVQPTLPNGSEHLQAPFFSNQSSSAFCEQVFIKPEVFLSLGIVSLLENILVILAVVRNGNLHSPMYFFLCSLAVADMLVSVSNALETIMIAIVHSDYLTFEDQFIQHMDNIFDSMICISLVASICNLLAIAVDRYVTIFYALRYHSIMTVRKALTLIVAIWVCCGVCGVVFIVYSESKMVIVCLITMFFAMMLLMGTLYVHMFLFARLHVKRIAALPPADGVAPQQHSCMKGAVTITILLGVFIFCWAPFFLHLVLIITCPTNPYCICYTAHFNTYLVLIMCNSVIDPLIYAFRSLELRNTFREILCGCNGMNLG

Compound	IC50	Ki
NC(=O)N1C(=O)/C(=C(\O)c2cccs2)c2cc(Cl)ccc21 [TENIDAP]	Not Active	–
COc1cc2nc(N3CCN(C(=O)C4CCCO4)CC3)nc(N)c2cc1OC (configuration not stated) [TERAZOSIN]	Not Active	–
CS(=O)(=O)c1ccc([C@@H](O)[C@@H](CO)NC(=O)C(Cl)Cl)cc1 [THIAMPHENICOL]	Not Active	–
CCN(CC)CCNC(=O)c1cc(S(C)(=O)=O)ccc1OC [TIAPRIDE]	Not Active	–
Clc1ccccc1CN1CCc2sccc2C1 [TICLOPIDINE]	Not Active	–
NC1CCN(c2nc3c(cc2F)c(=O)c(C(=O)O)cn3-c2ccc(F)cc2F)C1 (configuration not stated) [TOSUFLOXACIN]	Not Active	–
O=C(Nc1ccc(Br)cc1)c1cc(Br)cc(Br)c1O [TRIBROMSALAN]	Not Active	–
CC(c1cc2ccccc2s1)N(O)C(N)=O (configuration not stated) [ZILEUTON]	Not Active	–
MANGANESE CHLORIDE ANHYDROUS	Not Active	Not Active
SODIUM ORTHOVANAD	Not Active	Not Active

Molecular target: T2, Cysteinyl leukotriene receptor 1 (Homo sapiens, UniProt Q9Y271); further: in other assays of this panel Not Active means under 50% inhibition at 10 µM
T2 sequence (Q9Y271 whole entry): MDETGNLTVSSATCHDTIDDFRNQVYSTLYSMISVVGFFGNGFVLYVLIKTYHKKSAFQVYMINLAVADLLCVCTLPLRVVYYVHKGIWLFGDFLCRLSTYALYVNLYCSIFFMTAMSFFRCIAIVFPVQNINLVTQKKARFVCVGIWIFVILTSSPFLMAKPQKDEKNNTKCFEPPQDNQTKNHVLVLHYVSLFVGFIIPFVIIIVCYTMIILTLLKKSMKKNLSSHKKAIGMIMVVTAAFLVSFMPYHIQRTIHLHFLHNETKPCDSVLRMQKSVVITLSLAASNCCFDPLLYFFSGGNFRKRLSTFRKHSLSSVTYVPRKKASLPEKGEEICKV
Type: cell membranes, Membrane
Conditions: cho-k1

Compound	IC50	Ki
NC(=O)N1C(=O)/C(=C(\O)c2cccs2)c2cc(Cl)ccc21 [TENIDAP]	Not Active	–
COc1cc2nc(N3CCN(C(=O)C4CCCO4)CC3)nc(N)c2cc1OC (configuration not stated) [TERAZOSIN]	Not Active	–
CS(=O)(=O)c1ccc([C@@H](O)[C@@H](CO)NC(=O)C(Cl)Cl)cc1 [THIAMPHENICOL]	Not Active	–
CCN(CC)CCNC(=O)c1cc(S(C)(=O)=O)ccc1OC [TIAPRIDE]	Not Active	–
Clc1ccccc1CN1CCc2sccc2C1 [TICLOPIDINE]	Not Active	–
NC1CCN(c2nc3c(cc2F)c(=O)c(C(=O)O)cn3-c2ccc(F)cc2F)C1 (configuration not stated) [TOSUFLOXACIN]	Not Active	–
O=C(Nc1ccc(Br)cc1)c1cc(Br)cc(Br)c1O [TRIBROMSALAN]	Not Active	–
CC(c1cc2ccccc2s1)N(O)C(N)=O (configuration not stated) [ZILEUTON]	Not Active	–
MANGANESE CHLORIDE ANHYDROUS	Not Active	Not Active
SODIUM ORTHOVANAD	Not Active	Not Active

Test system: not listed separately
Experiment: DRUGMATRIX: Serotonin (5-Hydroxytryptamine) 5-HT3 radioligand binding (ligand: [3H] GR-65630)
Type: cell membranes, Membrane
Conditions: hek293; Not Active = under 50% inhibition at 10 µM

Compound	IC50	Ki
NC(=O)N1C(=O)/C(=C(\O)c2cccs2)c2cc(Cl)ccc21 [TENIDAP]	Not Active	Not Active
COc1cc2nc(N3CCN(C(=O)C4CCCO4)CC3)nc(N)c2cc1OC (configuration not stated) [TERAZOSIN]	Not Active	Not Active
CS(=O)(=O)c1ccc([C@@H](O)[C@@H](CO)NC(=O)C(Cl)Cl)cc1 [THIAMPHENICOL]	Not Active	Not Active
CCN(CC)CCNC(=O)c1cc(S(C)(=O)=O)ccc1OC [TIAPRIDE]	Not Active	Not Active
Clc1ccccc1CN1CCc2sccc2C1 [TICLOPIDINE]	Not Active	Not Active
NC1CCN(c2nc3c(cc2F)c(=O)c(C(=O)O)cn3-c2ccc(F)cc2F)C1 (configuration not stated) [TOSUFLOXACIN]	Not Active	Not Active
O=C(Nc1ccc(Br)cc1)c1cc(Br)cc(Br)c1O [TRIBROMSALAN]	Not Active	Not Active
CC(c1cc2ccccc2s1)N(O)C(N)=O (configuration not stated) [ZILEUTON]	Not Active	Not Active
MANGANESE CHLORIDE ANHYDROUS	Not Active	Not Active
SODIUM ORTHOVANAD	Not Active	Not Active

Molecular target: T3, Amine oxidase [flavin-containing] A (Homo sapiens, UniProt P21397)
T3 sequence (P21397 whole entry): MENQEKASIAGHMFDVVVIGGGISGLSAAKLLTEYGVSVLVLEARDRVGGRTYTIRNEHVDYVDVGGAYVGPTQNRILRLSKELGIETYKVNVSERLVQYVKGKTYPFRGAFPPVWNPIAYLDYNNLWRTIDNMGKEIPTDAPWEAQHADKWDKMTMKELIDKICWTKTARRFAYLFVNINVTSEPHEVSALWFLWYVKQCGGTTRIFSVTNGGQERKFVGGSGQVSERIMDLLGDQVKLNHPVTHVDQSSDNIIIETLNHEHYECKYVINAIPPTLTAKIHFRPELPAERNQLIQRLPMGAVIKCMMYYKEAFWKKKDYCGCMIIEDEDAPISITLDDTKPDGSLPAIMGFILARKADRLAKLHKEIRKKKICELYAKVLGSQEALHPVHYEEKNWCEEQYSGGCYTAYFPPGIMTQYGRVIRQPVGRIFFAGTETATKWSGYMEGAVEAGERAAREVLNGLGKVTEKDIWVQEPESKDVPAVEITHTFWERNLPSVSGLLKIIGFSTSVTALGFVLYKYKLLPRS
Experiment: DRUGMATRIX: Monoamine Oxidase MAO-A enzyme inhibition (substrate: Kynuramine)
Design: species or system BTI-TN-5B1-4
Conditions: bti-tn-5b1-4; Not Active = under 50% inhibition at 10 µM

Compound	IC50	Ki
NC(=O)N1C(=O)/C(=C(\O)c2cccs2)c2cc(Cl)ccc21 [TENIDAP]	Not Active	–
COc1cc2nc(N3CCN(C(=O)C4CCCO4)CC3)nc(N)c2cc1OC (configuration not stated) [TERAZOSIN]	Not Active	–
CS(=O)(=O)c1ccc([C@@H](O)[C@@H](CO)NC(=O)C(Cl)Cl)cc1 [THIAMPHENICOL]	Not Active	–
CCN(CC)CCNC(=O)c1cc(S(C)(=O)=O)ccc1OC [TIAPRIDE]	Not Active	–
Clc1ccccc1CN1CCc2sccc2C1 [TICLOPIDINE]	Not Active	–
NC1CCN(c2nc3c(cc2F)c(=O)c(C(=O)O)cn3-c2ccc(F)cc2F)C1 (configuration not stated) [TOSUFLOXACIN]	Not Active	–
O=C(Nc1ccc(Br)cc1)c1cc(Br)cc(Br)c1O [TRIBROMSALAN]	Not Active	–
CC(c1cc2ccccc2s1)N(O)C(N)=O (configuration not stated) [ZILEUTON]	Not Active	–
MANGANESE CHLORIDE ANHYDROUS	Not Active	Not Active
SODIUM ORTHOVANAD	Not Active	Not Active

Molecular target: D(1A) dopamine receptor (Homo sapiens, UniProt P21728)
Experiment: DRUGMATRIX: Dopamine D1 radioligand binding (ligand: [3H] SCH-23390)
Type: cell membranes, CHO, Membrane
Conditions: cho; Not Active = under 50% inhibition at 10 µM

Sequence of D(1A) dopamine receptor (P21728 whole entry): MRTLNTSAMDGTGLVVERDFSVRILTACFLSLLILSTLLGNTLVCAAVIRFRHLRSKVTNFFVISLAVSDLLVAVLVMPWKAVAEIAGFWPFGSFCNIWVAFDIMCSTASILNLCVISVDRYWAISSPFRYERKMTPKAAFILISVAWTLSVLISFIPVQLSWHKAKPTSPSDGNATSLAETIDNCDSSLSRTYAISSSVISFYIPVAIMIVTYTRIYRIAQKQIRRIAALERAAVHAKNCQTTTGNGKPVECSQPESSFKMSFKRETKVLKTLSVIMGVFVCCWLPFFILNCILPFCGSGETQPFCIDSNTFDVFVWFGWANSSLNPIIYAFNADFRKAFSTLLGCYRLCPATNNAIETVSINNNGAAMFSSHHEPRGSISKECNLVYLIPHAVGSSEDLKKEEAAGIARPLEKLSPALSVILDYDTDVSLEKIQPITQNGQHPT

Compound	IC50	Ki
NC(=O)N1C(=O)/C(=C(\O)c2cccs2)c2cc(Cl)ccc21 [TENIDAP]	Not Active	–
COc1cc2nc(N3CCN(C(=O)C4CCCO4)CC3)nc(N)c2cc1OC (configuration not stated) [TERAZOSIN]	Not Active	–
CS(=O)(=O)c1ccc([C@@H](O)[C@@H](CO)NC(=O)C(Cl)Cl)cc1 [THIAMPHENICOL]	Not Active	–
CCN(CC)CCNC(=O)c1cc(S(C)(=O)=O)ccc1OC [TIAPRIDE]	Not Active	–
Clc1ccccc1CN1CCc2sccc2C1 [TICLOPIDINE]	Not Active	–
NC1CCN(c2nc3c(cc2F)c(=O)c(C(=O)O)cn3-c2ccc(F)cc2F)C1 (configuration not stated) [TOSUFLOXACIN]	Not Active	–
O=C(Nc1ccc(Br)cc1)c1cc(Br)cc(Br)c1O [TRIBROMSALAN]	Not Active	–
CC(c1cc2ccccc2s1)N(O)C(N)=O (configuration not stated) [ZILEUTON]	Not Active	–
MANGANESE CHLORIDE ANHYDROUS	Not Active	Not Active
SODIUM ORTHOVANAD	Not Active	Not Active

Test system: not listed separately
Experiment: DRUGMATRIX: Atrial Natriuretic Factor (ANF) radioligand binding (ligand: [125I] ANF (rat))
Type: cell membranes, Cavia porcellus, Dunkin-Hartley, Adrenal gland, Membrane
Conditions: Not Active = under 50% inhibition at 10 µM

Compound	IC50	Ki
NC(=O)N1C(=O)/C(=C(\O)c2cccs2)c2cc(Cl)ccc21 [TENIDAP]	Not Active	Not Active
COc1cc2nc(N3CCN(C(=O)C4CCCO4)CC3)nc(N)c2cc1OC (configuration not stated) [TERAZOSIN]	Not Active	Not Active
CS(=O)(=O)c1ccc([C@@H](O)[C@@H](CO)NC(=O)C(Cl)Cl)cc1 [THIAMPHENICOL]	Not Active	Not Active
CCN(CC)CCNC(=O)c1cc(S(C)(=O)=O)ccc1OC [TIAPRIDE]	Not Active	Not Active
Clc1ccccc1CN1CCc2sccc2C1 [TICLOPIDINE]	Not Active	Not Active
NC1CCN(c2nc3c(cc2F)c(=O)c(C(=O)O)cn3-c2ccc(F)cc2F)C1 (configuration not stated) [TOSUFLOXACIN]	Not Active	Not Active
O=C(Nc1ccc(Br)cc1)c1cc(Br)cc(Br)c1O [TRIBROMSALAN]	Not Active	Not Active
CC(c1cc2ccccc2s1)N(O)C(N)=O (configuration not stated) [ZILEUTON]	Not Active	Not Active
MANGANESE CHLORIDE ANHYDROUS	Not Active	Not Active
SODIUM ORTHOVANAD	Not Active	Not Active

Molecular target: T4, Leukotriene C4 synthase (Cavia porcellus, UniProt A6XA80);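 further: enzyme inhibition assay of leukotriene C4 synthase, using LTA4 as the substrate; in other assays of this panel Not Active means under 50% inhibition at 10 µM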
T4 sequence (A6XA80 whole entry): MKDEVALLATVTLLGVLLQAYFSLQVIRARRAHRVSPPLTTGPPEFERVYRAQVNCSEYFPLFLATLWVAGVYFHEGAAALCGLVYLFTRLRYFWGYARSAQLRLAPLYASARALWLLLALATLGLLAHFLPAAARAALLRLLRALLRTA
Type: tissue-based, Lung
Conditions: not given

Compound	IC50	Ki
NC(=O)N1C(=O)/C(=C(\O)c2cccs2)c2cc(Cl)ccc21 [TENIDAP]	Not Active	–
COc1cc2nc(N3CCN(C(=O)C4CCCO4)CC3)nc(N)c2cc1OC (configuration not stated) [TERAZOSIN]	Not Active	–
CS(=O)(=O)c1ccc([C@@H](O)[C@@H](CO)NC(=O)C(Cl)Cl)cc1 [THIAMPHENICOL]	Not Active	–
CCN(CC)CCNC(=O)c1cc(S(C)(=O)=O)ccc1OC [TIAPRIDE]	Not Active	–
Clc1ccccc1CN1CCc2sccc2C1 [TICLOPIDINE]	Not Active	–
NC1CCN(c2nc3c(cc2F)c(=O)c(C(=O)O)cn3-c2ccc(F)cc2F)C1 (configuration not stated) [TOSUFLOXACIN]	Not Active	–
O=C(Nc1ccc(Br)cc1)c1cc(Br)cc(Br)c1O [TRIBROMSALAN]	Not Active	–
CC(c1cc2ccccc2s1)N(O)C(N)=O (configuration not stated) [ZILEUTON]	Not Active	–
MANGANESE CHLORIDE ANHYDROUS	Not Active	Not Active
SODIUM ORTHOVANAD	Not Active	Not Active
